Source: US20230390220A1, “MONOAMINE OXIDASE BLOCKADE THERAPY FOR TREATING CANCER THROUGH REGULATING ANTITUMOR T CELL IMMUNITY” (THE REGENTS OF THE UNIVERSITY OF CALIFORNIA, priority 2020, published 2023)

How the values were obtained:
[1] = tested on: 5-HTRs on CD8 T cells; experiment: Western blot of 5-HTR (MAPK) and TCR signaling in CD8 T cells; type: cell-based, mouse; settings: anti-CD3 2 days, asenapine 10 μM, restimulated 20 minutes
Protocol: CD8 T cells purified from Maoa-WT and Maoa-KO mice were cultured in vitro in a 24-well plate at 0.5×10^6 cells per well for 2 days, in the presence of plate-bound anti-mouse CD3ε (5 μg/ml), with or without asenapine treatment (10 μM). Cells were then rested on ice for 2 hours and restimulated with plate-bound anti-mouse CD3ε (5 μg/ml) for 20 minutes. Total protein was extracted using a lysis buffer containing 20 mM HEPES (pH 7.6), 150 mM NaCl, 1 mM EDTA, 1% TritonX-100, and protease/phosphatase inhibitor cocktail (Cat #5872S, Cell Signaling). Nuclear protein was extracted using a Nuclear Protein Extraction Kit (Cat #P178833, Thermo Fisher Scientific). Protein concentration was measured a BCA Assay Kit (Cat #23228 and Cat #1859078, Thermo Fisher Scientific). Equal amounts of protein were resolved on a 10% SDS-PAGE gel and then transferred to a PVDF membrane by electrophoresis. MAO-A antibody was purchased from Abcam (Cat #ab126751, Clone EPR7101). […] Signals were visualized with autoradiography using an ECL system (Cat #RPN2232, Thermo Fisher Scientific). The data were analyzed using an Image Lab software (Bio-Rad).

[2] = tested on: CD8 T cells; experiment: In vitro mouse CD8 T cell activation with anti-CD3 (ELISA / flow cytometry); type: cell-based; settings: for CD8 T cell hyperactivation (expression of CD25, Granzyme B, IL-2, IFN-γ): B6 wildtype CD8 T cells, anti-CD3, Phe 10 μM, Moc 200 μM, Clo 20 μM; for IL-2 and IFN-γ production: Maoa-WT CD8 T cells, 4-day time course post anti-CD3, treatment 10 μM vs NT
Source text: The coating and biotinylated antibodies for the detection of mouse IFN-γ (coating antibody, cat #554424; biotinylated detection antibody, cat #554426) and IL-2 (coating antibody, cat #551216; biotinylated detection antibody, cat #554410) were purchased from BD Biosciences. The streptavidin-HRP conjugate (Cat #18410051) was purchased from Invitrogen. Mouse IFN-γ (Cat #575309) and IL-2 (Cat #575409) standards were purchased from BioLegend. The 3,3′,5,5′-Tetramethylbenzidine (TMB, cat #51200048) substrate was purchased from KPL.

[3] = tested on: B16-OVA melanoma; experiment: Syngeneic B16-OVA melanoma tumor model, tumor growth; type: in vivo, mouse; settings: for Tumor growth, B16-OVA melanoma prevention model: i.p., phenelzine 30 mg/kg/day, moclobimide 50 mg/kg/day, clorgyline 50 mg/kg/day
Protocol: (§1) B16-OVA melanoma cells (1×10^6 per animal) or MC38 colon cancer cells (3×10^5 per animal) were subcutaneously (s.c.) injected into experimental mice to form solid tumors. In some experiments, mice received intraperitoneal (i.p.) injection of MAOIs (i.e., phenelzine, 30 mg/kg/day; moclobimide, 50 mg/kg/day; or clorgyline, 50 mg/kg/day) to block MAO-A activity. In some experiments, mice received i.p. injection of anti-mouse CD8α antibodies (200 μg/animal/bi-weekly) to deplete CD8 T cells; mice received i.p. injection of isotype antibodies were included as controls. In some experiments, mice received i.p. injection of anti-mouse PD-1 antibodies (300 μg/animal/bi-weekly) to block PD-1; mice received i.p. injection of isotype antibodies were included as controls.
(§2) During an experiment, tumor growth was monitored twice per week by measuring tumor size using a Fisherbrand™ Traceable™ digital caliper (Thermo Fisher Scientific); tumor volumes were calculated by formula ½×L×W^2. At the end of an experiment, tumor-infiltrating immune cells were isolated for analysis using QPCR, flow cytometry, and/or scRNASeq. In some experiments, sera were also collected for serotonin measurement.

[4] = tested on: Maoa-WT CD8 T cells; settings: 24-hour post anti-CD3 stimulation, phenelzine 10 μM vs NT, ELISA
Protocol: Spleen and lymph node cells were harvested from Maoa-KO or Maoa-WT (B6 wildtype) mice and subjected to MACS using a Mouse CD8 T Cell Isolation Kit (Cat #120117044, Miltenyi Biotec) following the manufacturer's instructions. Purified mouse CD8 T cells were cultured in vitro in C10 medium, in a 24-well plate at 0.5×10^6 cells per ml medium per well, in the presence of plate-bound anti-mouse CD3ε (5 μg/ml) for up to 4 days. At indicated time points, cells were collected for flow cytometry analysis of surface marker expression and intracellular effector molecule production, and for QPCR analysis of mRNA expression; cell culture supernatants were collected for ELISA analysis of effector cytokine production. In experiments studying serotonin signaling, cells were cultured in C10 medium made of serotonin-depleted FBS that was pretreated overnight with charcoal-dextran (Cat #C6241, Sigma; 1 gram per 50 ml FBS). L-Ascorbic acid (Cat #A4403, Sigma; 100 μM) was added to C10 medium to stabilize T cell-produced or supplemented serotonin. […] In some experiments, cells were supplemented with exogenous serotonin (SER, 10 μM) to stimulate serotonin signaling. In some experiments, cells were treated with serotonin receptor antagonist asenapine (ASE, 10 μM) to block serotonin receptor signaling. […] The absorbance at 450 nm was measured using an Infinite M1000 microplate reader (Tecan).

[5] = tested on: tumor-infiltrating CD8 T cells; settings: B16-OVA, day 17, phenelzine vs NT, FACS
Protocol: as §1

[6] = tested on: B16-OVA melanoma; settings: Maoa-WT mice
Protocol: as §1, §2
HPLC was used to measure intratumoral and serum serotonin levels as previously described (47, 48). Briefly, tumors and sera were collected from experimental mice at indicated time points, and were snap-frozen using liquid nitrogen. Frozen samples were thawed and homogenized using methanol and acetonitrile by vortexing. Homogenized samples were centrifuged, and supernatants were collected to new tubes and evaporated under a stream of argon. Dried sample pellets were then reconstituted in HPLC running buffer and were ready for analysis. Serotonin concentration was quantified using a C 18 column by reverse phase HPLC (System Gold 166P detector, Beckman Coulter)

[7] = tested on: A375-A2-ESO-FG human melanoma cells
Protocol: The A375-A2-ESO-FG human melanoma cells (10×10^6 cells per animal) were s.c. injected into NSG mice to form solid tumors. In some experiments, mice received phenelzine treatment through i.p. injection (30 mg/kg/day). In some experiments, mice received adoptive transfer of ESO-T cells through r.o. injection (4×10^6 cells per recipient mouse). Prior to ESO-T cell adoptive transfer, recipient mice were preconditioned with total body irradiation (100 rads). During an experiment, tumor growth was monitored twice per week by measuring tumor size using a Fisherbrand™ Traceable™ digital caliper; tumor volumes were calculated by formula ½×L×W^2.

[8] = tested on: MC38 colon cancer
Protocol: as §1, §2

[9] = B6 wildtype mice, combination study with anti-PD-1 (Iso, Phe+Iso, αPD-1, Phe+αPD-1)

## CN1CC2c3ccccc3Oc3ccc(Cl)cc3C2C1 (stereo not drawn) [asenapine]
[1]
  Enhancement of MAPK signaling (ERK phosphorylation) and TCR downstream signaling (NFAT, NF-κB, c-Jun) in Maoa-KO T cells: largely abrogated
[2]; day 2 post anti-CD3 stimulation, asenapine 10 μM, ELISA
  IL-2 and IFN-γ production difference between Maoa-WT and Maoa-KO CD8 T cells: eliminated the cytokine production difference between Maoa-WT and Maoa-KO CD8 T cells

## C#CCN(C)CCCOc1ccc(Cl)cc1Cl [clorgyline]
[3]; B6 wildtype mice
  Tumor growth, B16-OVA melanoma prevention model: dramatically suppressed tumor growth
[2]
  CD8 T cell hyperactivation (expression of CD25, Granzyme B, IL-2, IFN-γ): efficiently induced CD8 T cell hyperactivation

## O=C(NCCN1CCOCC1)c1ccc(Cl)cc1 [mocolobemide, moclobemide]
[3]; B6 wildtype mice
  Tumor growth, B16-OVA melanoma prevention model: dramatically suppressed tumor growth
[2]
  CD8 T cell hyperactivation (expression of CD25, Granzyme B, IL-2, IFN-γ): efficiently induced CD8 T cell hyperactivation

## NNCCc1ccccc1 [phenelzine]
[4]
  Serotonin levels in CD8 T cell cultures: recapitulated the serotonin overproduction phenotype of Maoa-KO CD8 T cells
[3]; [9]
  B16-OVA tumor growth: significantly suppressed tumor growth at a level comparable to the anti-PD-1 treatment
[3]; B6 wildtype mice
  Tumor growth, B16-OVA melanoma prevention model: dramatically suppressed tumor growth
[3]; B6 wildtype mice, phenelzine vs NT
  Tumor progression, pre-established B16-OVA melanoma solid tumors: effectively suppressed tumor progression
[3]; NSG mice, phenelzine vs NT
  B16-OVA tumor growth in immunodeficient NSG mice: did not suppress the growth
[3]; tumor-bearing B6 wildtype mice, phenelzine + anti-CD8
  Tumor suppression with CD8 T cells depleted: no tumor suppression was observed
[5]
  Expression of exhaustion markers (PD-1) on tumor-infiltrating CD8 T cells: reduced expression of exhaustion markers
  Production of effector molecules (IFN-γ and Granzyme B) by tumor-infiltrating CD8 T cells: enhanced production of effector molecules
[6]; anti-CD8 antibody depletion, day 14, HPLC
  Phenelzine treatment-induced accumulation of serotonin in the tumor after depletion of CD8 T cells: largely abolished
[6]; day 14, with or without phenelzine and anti-CD8, HPLC
  Serum serotonin levels: no significant changes in serotonin levels in serum
[6]; day 14 post tumor challenge, phenelzine vs NT, HPLC
  Intratumoral serotonin levels: increased levels of serotonin
[7]; NSG mice without ESO-T cells, phenelzine vs NT
  A375-A2-ESO-FG tumor growth without ESO-T cell adoptive transfer: no tumor suppression was observed
[7]; NSG mice, ESO-T cells, phenelzine i.p. 30 mg/kg/day vs NT
  A375-A2-ESO-FG tumor growth with ESO-T cell adoptive transfer: effectively suppressed tumor growth
[2]
  CD8 T cell hyperactivation (expression of CD25, Granzyme B, IL-2, IFN-γ): efficiently induced CD8 T cell hyperactivation
[2]; ELISA
  IL-2 and IFN-γ production: increased production of the effector cytokines IL-2 and IFN-γ
[8]; [9]
  MC38 tumor growth: completely suppressed tumor growth as effectively as the anti-PD-1 treatment
[8]; NSG mice, phenelzine vs NT
  MC38 tumor growth in immunodeficient NSG mice: did not suppress the growth

## NCCc1c[nH]c2ccc(O)cc12 [serotonin]
[2]; ELISA
  IL-2 and IFN-γ production: T cell hyperactivation and elevated production of IL-2 and IFN-γ
